According to patent US20080260636A1, “STABILIZATION OF RADIONUCLIDE-CONTAINING COMPOSITIONS” (priority 2001, published 2008):
Where a SMILES comes first, the peptide text is derived from it. [ ]: non-standard residue; d: D form. The star is where a group is joined. X1 = NCCCC[C@H](NC(=O)[C@H](CS)NC(=O)[C@H](CCCCN)NC(=O)[C@@H](N)CNC(=O)C*)C(N)=O; NMeF = CN[C@@H](Cc1ccccc1)C(=O)O; hCys = N[C@@H](CCS)C(=O)O

Key:
[1] = RCP of single vial kit (iodide formulated with targeting agent) reconstituted with Tc 99m; type: physicochemical
Method: (§1) KI affords stability to Tc-99m depreotide even when an oxidant (i.e. nitrate) is present in the eluate. Potassium iodide is well tolerated in humans unlike other stabilizing agents such as methionine or trolox. Methods for determining the RCP value are known in the art such as described in Cancer Res. (1998), May 1, 58(9):1850-1859, and J. Nucl. Med. (1996), June, 37(6): 1016-1022.
(§2) Further examples were conducted to show the stabilizing effect of the iodide ion for other complexes under varying conditions and with varying amounts and sources (KI and NaI) of iodide ion.

[2] = RCP of 2-vial kit (iodide added to formulated kit, then Tc-99m added); type: physicochemical; details: 2-vials
Method: as §1, §2

% RCP ([2]; KI 4 mg, 5 h): 94%
% RCP ([2]; KI 6 mg, 5 h): 94%
% RCP ([2]; KI 10 mg, 6 h): 95%
Structure (SMILES): CC(C)[C@@H]1NC(=O)[C@H](CCCCN)NC(=O)[C@@H](Cc2c[nH]c3ccccc23)NC(=O)[C@H](Cc2ccc(O)cc2)NC(=O)[C@H](Cc2ccccc2)N(C)C(=O)[C@H](CCSCC(=O)NC[C@H](N)C(=O)N[C@@H](CCCCN)C(=O)N[C@@H](CS)C(=O)N[C@@H](CCCCN)C(N)=O)NC1=O [Depreotide, depreotide] (cyclo([hCys](X1)[NMeF]Y[dW]KV))
% RCP ([1]; KI 4 mg, 5 h): 89%
% RCP ([1]; KI 5 mg, 6 h): 93%
% RCP ([1]; KI 6 mg, 5 h): 95%
% RCP ([1]; NaI 8 mg, 6 h): 91%
% RCP ([1]; NaI 10 mg, 5 h): 93%
